Key:
[1] = 101.3 kPa, Liquid; for speed of sound: Linear variable-path acoustic interferometer; for mass density: Pycnometric method
[2] = xn = mol fraction of the nth substance listed; conditions: 101 kPa, Liquid; for speed of sound: Linear variable-path acoustic interferometer; for mass density: Pycnometric method

CC(C)OC(C)C [diisopropyl ether]
[1]
Conditions | mass density [kg/m3] | speed of sound [m/s]
303.15 K | 712.9 | 976
313.15 K | 702.5 | 932
323.15 K | 691.9 | 889

CC(C)OC(C)C [diisopropyl ether] + CN(C)c1ccccc1
[2], x1 = 1
Conditions | mass density [kg/m3] | speed of sound [m/s]
303.15 K | 712.9 | 976
313.15 K | 702.5 | 932
323.15 K | 691.9 | 889

CCN(CC)c1ccccc1 [N,N-diethylaniline]
[1]
Conditions | mass density [kg/m3] | speed of sound [m/s]
303.15 K | 926.2 | 1434
313.15 K | 917.6 | 1396
323.15 K | 909.2 | 1358

CC(C)OC(C)C [diisopropyl ether] + CCN(CC)c1ccccc1
[2], x1 = 1
Conditions | mass density [kg/m3] | speed of sound [m/s]
303.15 K | 712.9 | 976
313.15 K | 702.5 | 932
323.15 K | 691.9 | 889

CN(C)c1ccccc1 [N,N-dimethylaniline] + CC(C)OC(C)C
[2]
Conditions | mass density, 303.15 K [kg/m3] | mass density, 313.15 K [kg/m3] | mass density, 323.15 K [kg/m3] | speed of sound, 303.15 K [m/s] | speed of sound, 313.15 K [m/s] | speed of sound, 323.15 K [m/s]
x2 = 0 | 948.4 | 939.8 | 931.5 | 1468 | 1431 | 1393
x2 = 0.0741 | 932.6 | 924.8 | 916.9 | 1430 | 1396 | 1360
x2 = 0.1589 | 914 | 906.5 | 898.6 | 1385 | 1353 | 1318
x2 = 0.2428 | 895.3 | 887.5 | 879.6 | 1342 | 1311 | 1277
x2 = 0.3355 | 874.3 | 866.2 | 858.3 | 1296 | 1262 | 1229
x2 = 0.4294 | 852.6 | 844.2 | 836.3 | 1250 | 1214 | 1182
x2 = 0.5338 | 827.8 | 819.2 | 811.5 | 1199 | 1161 | 1128
x2 = 0.6362 | 802.8 | 794.1 | 786.4 | 1149 | 1112 | 1078
x2 = 0.7466 | 775.2 | 766.4 | 758.5 | 1096 | 1059 | 1024
x2 = 0.8676 | 744.8 | 735.7 | 726.9 | 1038 | 1000 | 961

CN(C)c1ccccc1 [N,N-dimethylaniline] + C1CCOC1
[2]
Conditions | mass density, 303.15 K [kg/m3] | mass density, 313.15 K [kg/m3] | mass density, 323.15 K [kg/m3] | speed of sound, 303.15 K [m/s] | speed of sound, 313.15 K [m/s] | speed of sound, 323.15 K [m/s]
x2 = 0 | 948.4 | 939.8 | 931.5 | 1468 | 1431 | 1393
x2 = 0.0683 | 945.8 | 937.5 | 929.5 | 1459 | 1424 | 1391
x2 = 0.1883 | 940.8 | 932.9 | 925.2 | 1439 | 1408 | 1376
x2 = 0.2797 | 936.7 | 928.6 | 921.1 | 1423 | 1391 | 1359
x2 = 0.389 | 931 | 922.9 | 915.3 | 1403 | 1370 | 1337
x2 = 0.4723 | 926.2 | 918 | 910.2 | 1387 | 1354 | 1319
x2 = 0.5757 | 919.3 | 911.1 | 903 | 1365 | 1331 | 1294
x2 = 0.6813 | 910.9 | 902.8 | 894.4 | 1340 | 1304 | 1267
x2 = 0.7866 | 901.1 | 893.2 | 884.2 | 1314 | 1276 | 1238
x2 = 0.8909 | 890.1 | 881.4 | 871.7 | 1287 | 1246 | 1206

CCN(CC)c1ccccc1 [N,N-diethylaniline] + C1CCOC1
[2]
Conditions | mass density, 303.15 K [kg/m3] | mass density, 313.15 K [kg/m3] | mass density, 323.15 K [kg/m3] | speed of sound, 303.15 K [m/s] | speed of sound, 313.15 K [m/s] | speed of sound, 323.15 K [m/s]
x2 = 0 | 926.2 | 917.6 | 909.2 | 1434 | 1396 | 1358
x2 = 0.0933 | 923.9 | 915.7 | 907.8 | 1428 | 1390 | 1354
x2 = 0.1907 | 921.2 | 913.3 | 905.7 | 1418 | 1379 | 1343
x2 = 0.2899 | 918.2 | 910.4 | 903 | 1405 | 1366 | 1330
x2 = 0.3879 | 914.9 | 907.1 | 899.6 | 1390 | 1351 | 1315
x2 = 0.4892 | 910.8 | 903.2 | 895.3 | 1372 | 1333 | 1296
x2 = 0.5937 | 906 | 898.4 | 890.5 | 1352 | 1312 | 1275
x2 = 0.6904 | 900.9 | 893.1 | 885.1 | 1331 | 1291 | 1252
x2 = 0.7948 | 894.3 | 886.2 | 878.1 | 1307 | 1265 | 1226
x2 = 0.8935 | 886.9 | 877.9 | 869.2 | 1283 | 1240 | 1200

C1CCOC1 [tetrahydrofuran]
[1]
Conditions | mass density [kg/m3] | speed of sound [m/s]
303.15 K | 876.9 | 1254
313.15 K | 865.7 | 1207
323.15 K | 854.8 | 1165

CN(C)c1ccccc1 [N,N-dimethylaniline]
[1]
Conditions | mass density [kg/m3] | speed of sound [m/s]
303.15 K | 948.4 | 1468
313.15 K | 939.8 | 1431
323.15 K | 931.5 | 1393

CCN(CC)c1ccccc1 [N,N-diethylaniline] + CC(C)OC(C)C
[2]
Conditions | mass density, 303.15 K [kg/m3] | mass density, 313.15 K [kg/m3] | mass density, 323.15 K [kg/m3] | speed of sound, 303.15 K [m/s] | speed of sound, 313.15 K [m/s] | speed of sound, 323.15 K [m/s]
x2 = 0 | 926.2 | 917.6 | 909.2 | 1434 | 1396 | 1358
x2 = 0.078 | 914.4 | 906.8 | 899 | 1403 | 1367 | 1332
x2 = 0.1606 | 901 | 893.6 | 886.6 | 1370 | 1336 | 1302
x2 = 0.2581 | 884 | 876.7 | 870.2 | 1330 | 1296 | 1261
x2 = 0.3421 | 868.5 | 861.1 | 854.7 | 1295 | 1260 | 1224
x2 = 0.4336 | 850.7 | 843 | 836.7 | 1255 | 1218 | 1182
x2 = 0.5341 | 829.8 | 822.1 | 815.7 | 1209 | 1171 | 1134
x2 = 0.6457 | 804.7 | 797.1 | 790.6 | 1156 | 1117 | 1080
x2 = 0.7545 | 778.3 | 770.6 | 764 | 1103 | 1063 | 1023
x2 = 0.8762 | 746.7 | 738.3 | 730.8 | 1042 | 1000 | 958

C1CCOC1 [tetrahydrofuran] + CN(C)c1ccccc1
[2], x1 = 1
Conditions | mass density [kg/m3] | speed of sound [m/s]
303.15 K | 876.9 | 1254
313.15 K | 865.7 | 1207
323.15 K | 854.8 | 1165

C1CCOC1 [tetrahydrofuran] + CCN(CC)c1ccccc1
[2], x1 = 1
Conditions | mass density [kg/m3] | speed of sound [m/s]
303.15 K | 876.9 | 1254
313.15 K | 865.7 | 1207
323.15 K | 854.8 | 1165

From the NIST ThermoML archive (doi:10.1016/j.tca.2011.02.004)
